Tested on: ARPE-19mel cells
Experiment: Melanosomal drug uptake assay in re-pigmented ARPE-19mel cells (medium concentration vs non-pigmented ARPE-19, LC-MS/MS)
Assay type: in vitro ADME, human
Details: 10 % stage of pigmentation (7 µg melanin/well); 4 µM drug, 20 hours, serum-free medium
Experimental: Uptake of six different drugs (Table 1) was studied in non-pigmented ARPE-19 cells and pigmented ARPE-19mel cells. The melanosome administration was conducted as described above using three melanosome doses (corresponding to 7 µg, 20 µg and 68 µg of melanin). These melanosome doses correspond to 10, 30 and 100% levels of pigmentation. The highest external melanosome dose (68 µg) results in similar cellular pigmentation with the native pRPE (i.e. normalized as 100%).
Drug uptake study was initiated 4–5 days after melanosome feeding. The experiments were conducted in 2–6 replicate wells, separately for each compound. The cells were exposed to 4 µM of each drug for 20 hours in serum-free culture medium. Then, samples from the medium samples were collected and diluted 2:5 into acetonitrile (ACN) with 0.2% formic acid. The samples were centrifuged at 15 000 g for 5 min, and the supernatant was collected and diluted 1:10 into mixture of ACN-water (60:40). Finally, internal standards were added at final concentration of 100 nM. Different internal standards were used for each compound (Table 1). The melanin amounts in the wells were measured after the uptake experiment (see above).
Drugs were quantitated with liquid chromatography mass spectrometry (LC-MS) analyses that were carried out with Acquity i-class UPLC (Waters, Massachusetts, USA) coupled with Xevo TQ-S triple quadrupole mass spectrometry (Waters). […] Chromatographic separation for all six compounds was carried out using Waters HSS-T3 column (2.1 × 100 mm, 1.8 µm) and gradient run. The mobile phases were prepared as binary phases. Phase A was purified water with 0.1% of formic acid and phase B contained 100% lc-ms grade acetonitrile (Chromasolv^TM). […] Total run time was 9 minutes including column flush and stabilization to the initial state. […] Flow through needle system was used.
Electrospray ionization on positive mode was used in the analyses. […] Nitrogen was used as a desolvation gas (Aga, Helsinki, Finland) and argon as a collision gas (Aga). Capillary and cone voltages, collision energy and dwell time were tuned individually for each compound (Table 2). […] Minimum of eight calibration curve levels were used for quantification while quality control (QC) samples used to monitor precision and bias of the assay. Data were processed with MassLynx V4.1 software (Waters).
The melanosomal drug uptake was calculated using the Eq. 1 below:1 Melanosomaldruguptake(%)=(1−CmediumARPE−19mel/CmediumARPE−19)×100%

| Structure (SMILES) | Melanosomal drug uptake (%), average [%] |
| --- | --- |
| CCN(CC)CCCC(C)Nc1ccnc2cc(Cl)ccc12 (centres unmarked) [chloroquine] | 80.3 |
| O=C(O)Cc1ccccc1Nc1c(Cl)cccc1Cl [diclofenac] | 0.8 |
| CN(Cc1cnc2nc(N)nc(N)c2n1)c1ccc(C(=O)N[C@@H](CCC(=O)O)C(=O)O)cc1 [methotrexate] | 5.1 |
| CC[C@@H]1C(=O)OC[C@@H]1Cc1cncn1C [pilocarpine] | 11.5 |
| CC(C)NCC(O)COc1cccc2ccccc12 (centres unmarked) [propranolol] | 34.1 |
| CC(C)(C)NC[C@H](O)COc1nsnc1N1CCOCC1 [timolol] | 17.6 |

Same assay, conditions: 30 % stage of pigmentation (20 µg melanin/well); 4 µM drug, 20 hours, serum-free medium

| Structure (SMILES) | Melanosomal drug uptake (%), average [%] |
| --- | --- |
| CCN(CC)CCCC(C)Nc1ccnc2cc(Cl)ccc12 (centres unmarked) [chloroquine] | 93.3 |
| O=C(O)Cc1ccccc1Nc1c(Cl)cccc1Cl [diclofenac] | 1.2 |
| CN(Cc1cnc2nc(N)nc(N)c2n1)c1ccc(C(=O)N[C@@H](CCC(=O)O)C(=O)O)cc1 [methotrexate] | 3.9 |
| CC[C@@H]1C(=O)OC[C@@H]1Cc1cncn1C [pilocarpine] | 23.5 |
| CC(C)NCC(O)COc1cccc2ccccc12 (centres unmarked) [propranolol] | 76.1 |
| CC(C)(C)NC[C@H](O)COc1nsnc1N1CCOCC1 [timolol] | 31.2 |

Same assay, conditions: 100 % stage of pigmentation (68 µg melanin/well); 4 µM drug, 20 hours, serum-free medium

| Structure (SMILES) | Melanosomal drug uptake (%), average [%] |
| --- | --- |
| CCN(CC)CCCC(C)Nc1ccnc2cc(Cl)ccc12 (centres unmarked) [chloroquine] | 96.7 |
| O=C(O)Cc1ccccc1Nc1c(Cl)cccc1Cl [diclofenac] | 3.7 |
| CN(Cc1cnc2nc(N)nc(N)c2n1)c1ccc(C(=O)N[C@@H](CCC(=O)O)C(=O)O)cc1 [methotrexate] | 3.5 |
| CC[C@@H]1C(=O)OC[C@@H]1Cc1cncn1C [pilocarpine] | 30.2 |
| CC(C)NCC(O)COc1cccc2ccccc12 (centres unmarked) [propranolol] | 92.2 |
| CC(C)(C)NC[C@H](O)COc1nsnc1N1CCOCC1 [timolol] | 48.2 |

Same assay, conditions: ARPE-19mel cells; pigmentation stage not specified; 4 µM drug, 20 hours

| Structure (SMILES) | Melanosomal drug uptake (fraction of administered compound in the melanosomes) [%] |
| --- | --- |
| CCN(CC)CCCC(C)Nc1ccnc2cc(Cl)ccc12 (centres unmarked) [chloroquine] | > 90 |
| O=C(O)Cc1ccccc1Nc1c(Cl)cccc1Cl [diclofenac] | < 5 |
| CN(Cc1cnc2nc(N)nc(N)c2n1)c1ccc(C(=O)N[C@@H](CCC(=O)O)C(=O)O)cc1 [methotrexate] | < 5 |
| CC(C)NCC(O)COc1cccc2ccccc12 (centres unmarked) [propranolol] | > 90 |

Tested on: not given
Experiment: not given
Design: method as in PMID 29859954, PMID 28479360
Details: descriptors originally obtained with ACDLabs Software; cited from earlier work

| Structure (SMILES) | pKa, most acidic | pKa, most basic |
| --- | --- | --- |
| CN(Cc1cnc2nc(N)nc(N)c2n1)c1ccc(C(=O)N[C@@H](CCC(=O)O)C(=O)O)cc1 [methotrexate] | 3.5 | – |
| CC[C@@H]1C(=O)OC[C@@H]1Cc1cncn1C [pilocarpine] | – | 7.02 |
| CC(C)(C)NC[C@H](O)COc1nsnc1N1CCOCC1 [timolol] | – | 9.4 |

Same assay, conditions: pH 7.4; descriptors originally obtained with ACDLabs Software; cited from earlier work

| Structure (SMILES) | logD7.4 (predicted) |
| --- | --- |
| O=C(O)Cc1ccccc1Nc1c(Cl)cccc1Cl [diclofenac] | 1.4 |
| CN(Cc1cnc2nc(N)nc(N)c2n1)c1ccc(C(=O)N[C@@H](CCC(=O)O)C(=O)O)cc1 [methotrexate] | −5.1 |
| CC[C@@H]1C(=O)OC[C@@H]1Cc1cncn1C [pilocarpine] | −0.4 |
| CC(C)(C)NC[C@H](O)COc1nsnc1N1CCOCC1 [timolol] | −0.6 |
